{"source": "paper PMC10879502", "about": "“Linking ATP and allosteric sites to achieve superadditive binding with bivalent EGFR kinase inhibitors” (Communications Chemistry, 2024)", "test_in_all_cases": "KINOMEscan", "type_in_all_cases": "binding", "conditions_in_all_cases": "1 μM", "key": {"SRMS": {"molecular_target": "SRMS (Homo sapiens, UniProt Q9H3Y6)"}, "MLK1": {"molecular_target": "T1, MLK1 (Homo sapiens, UniProt P80192)", "T1 construct": "purchased Eurofins DiscoverX Corporation"}, "CLK2": {"molecular_target": "CLK2 (Homo sapiens, UniProt P49760)", "sequence (P49760 whole entry)": "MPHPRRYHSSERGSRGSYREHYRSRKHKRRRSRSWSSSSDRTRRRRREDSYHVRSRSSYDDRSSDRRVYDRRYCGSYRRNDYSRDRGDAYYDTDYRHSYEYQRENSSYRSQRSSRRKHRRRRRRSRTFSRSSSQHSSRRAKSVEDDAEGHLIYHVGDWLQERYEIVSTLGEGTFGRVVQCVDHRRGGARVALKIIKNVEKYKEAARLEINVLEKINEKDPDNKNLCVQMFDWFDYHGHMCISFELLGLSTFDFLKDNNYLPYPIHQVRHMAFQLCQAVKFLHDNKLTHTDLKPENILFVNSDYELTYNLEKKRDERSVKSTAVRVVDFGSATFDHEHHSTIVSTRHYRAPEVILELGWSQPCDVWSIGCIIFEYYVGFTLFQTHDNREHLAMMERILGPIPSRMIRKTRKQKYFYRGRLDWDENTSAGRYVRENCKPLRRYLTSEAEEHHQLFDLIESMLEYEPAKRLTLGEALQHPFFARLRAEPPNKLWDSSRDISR"}, "QSK": {"molecular_target": "QSK (Homo sapiens, UniProt Q9Y2K2)"}, "PRKD1": {"molecular_target": "PRKD1 (Homo sapiens, UniProt Q15139)"}, "ICK": {"molecular_target": "T2, ICK (Homo sapiens, UniProt Q9UPZ9)", "T2 construct": "purchased Eurofins DiscoverX (KINOMEscan)"}, "CLK3": {"molecular_target": "CLK3 (Homo sapiens, UniProt P49761)"}, "ERK4": {"molecular_target": "ERK4 (Homo sapiens, UniProt P31152)"}, "ASK2": {"molecular_target": "ASK2 (Homo sapiens, UniProt O95382)"}, "MARK3": {"molecular_target": "T3, MARK3 (Homo sapiens, UniProt P27448)", "T3 construct": "purchased Eurofins DiscoverX Corporation"}, "ROCK1": {"molecular_target": "ROCK1 (Homo sapiens, UniProt Q13464)"}, "S6K1": {"molecular_target": "S6K1 (Homo sapiens, UniProt P23443)", "sequence (P23443 whole entry)": "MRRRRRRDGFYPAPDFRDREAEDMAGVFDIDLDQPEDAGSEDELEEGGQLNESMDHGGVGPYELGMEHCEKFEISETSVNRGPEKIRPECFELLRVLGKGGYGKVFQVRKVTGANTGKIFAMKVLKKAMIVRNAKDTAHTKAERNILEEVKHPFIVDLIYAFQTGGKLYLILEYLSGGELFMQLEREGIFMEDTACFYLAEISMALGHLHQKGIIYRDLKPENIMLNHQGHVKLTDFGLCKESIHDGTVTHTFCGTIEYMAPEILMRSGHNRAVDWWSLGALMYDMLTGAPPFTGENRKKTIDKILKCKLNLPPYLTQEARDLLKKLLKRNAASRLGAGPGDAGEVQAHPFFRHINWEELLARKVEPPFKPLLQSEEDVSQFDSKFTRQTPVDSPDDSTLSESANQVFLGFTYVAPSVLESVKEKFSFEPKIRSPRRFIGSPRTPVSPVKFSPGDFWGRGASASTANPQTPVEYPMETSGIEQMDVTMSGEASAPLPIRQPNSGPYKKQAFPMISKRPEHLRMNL"}, "CSNK1E": {"molecular_target": "T4, CSNK1E (Homo sapiens, UniProt P49674)", "T4 construct": "purchased Eurofins DiscoverX Corporation"}, "CSNK1A1": {"molecular_target": "CSNK1A1 (Homo sapiens, UniProt P48729)"}, "FER": {"molecular_target": "FER (Homo sapiens, UniProt P16591)"}, "EIF2AK1": {"molecular_target": "EIF2AK1 (Homo sapiens, UniProt Q9BQI3)", "sequence (Q9BQI3 whole entry)": "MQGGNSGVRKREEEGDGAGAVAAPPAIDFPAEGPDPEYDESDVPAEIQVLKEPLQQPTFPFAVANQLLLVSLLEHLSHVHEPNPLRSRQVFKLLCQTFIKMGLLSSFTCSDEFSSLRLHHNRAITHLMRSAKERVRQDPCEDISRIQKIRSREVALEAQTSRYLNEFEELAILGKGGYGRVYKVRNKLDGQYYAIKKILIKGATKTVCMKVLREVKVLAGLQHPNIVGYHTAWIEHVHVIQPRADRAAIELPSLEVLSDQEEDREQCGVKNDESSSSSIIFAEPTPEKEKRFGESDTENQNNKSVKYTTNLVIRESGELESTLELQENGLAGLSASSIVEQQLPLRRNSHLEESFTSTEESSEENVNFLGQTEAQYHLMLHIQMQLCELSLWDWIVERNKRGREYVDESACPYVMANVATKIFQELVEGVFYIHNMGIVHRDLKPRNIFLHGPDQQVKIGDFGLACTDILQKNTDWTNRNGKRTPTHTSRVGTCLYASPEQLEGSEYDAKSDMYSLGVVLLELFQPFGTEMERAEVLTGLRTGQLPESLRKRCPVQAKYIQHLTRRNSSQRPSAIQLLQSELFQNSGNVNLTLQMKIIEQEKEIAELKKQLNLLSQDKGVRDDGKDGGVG"}, "BRK": {"molecular_target": "T5, BRK (Homo sapiens, UniProt Q13882)", "T5 construct": "purchased Eurofins DiscoverX Corporation (KINOMEscan)"}, "ERK3": {"molecular_target": "ERK3 (Homo sapiens, UniProt Q16659)"}, "PIM2": {"molecular_target": "PIM2 (Homo sapiens, UniProt Q9P1W9)"}, "[1]": {"molecular_target": "RPS6KA5(Kin.Dom.1-N-terminal) (Homo sapiens, UniProt O75582)"}, "PIK3CA(I800L)": {"molecular_target": "PIK3CA(I800L) (Homo sapiens, UniProt P42336, I800L)", "sequence (P42336 whole entry I800L)": "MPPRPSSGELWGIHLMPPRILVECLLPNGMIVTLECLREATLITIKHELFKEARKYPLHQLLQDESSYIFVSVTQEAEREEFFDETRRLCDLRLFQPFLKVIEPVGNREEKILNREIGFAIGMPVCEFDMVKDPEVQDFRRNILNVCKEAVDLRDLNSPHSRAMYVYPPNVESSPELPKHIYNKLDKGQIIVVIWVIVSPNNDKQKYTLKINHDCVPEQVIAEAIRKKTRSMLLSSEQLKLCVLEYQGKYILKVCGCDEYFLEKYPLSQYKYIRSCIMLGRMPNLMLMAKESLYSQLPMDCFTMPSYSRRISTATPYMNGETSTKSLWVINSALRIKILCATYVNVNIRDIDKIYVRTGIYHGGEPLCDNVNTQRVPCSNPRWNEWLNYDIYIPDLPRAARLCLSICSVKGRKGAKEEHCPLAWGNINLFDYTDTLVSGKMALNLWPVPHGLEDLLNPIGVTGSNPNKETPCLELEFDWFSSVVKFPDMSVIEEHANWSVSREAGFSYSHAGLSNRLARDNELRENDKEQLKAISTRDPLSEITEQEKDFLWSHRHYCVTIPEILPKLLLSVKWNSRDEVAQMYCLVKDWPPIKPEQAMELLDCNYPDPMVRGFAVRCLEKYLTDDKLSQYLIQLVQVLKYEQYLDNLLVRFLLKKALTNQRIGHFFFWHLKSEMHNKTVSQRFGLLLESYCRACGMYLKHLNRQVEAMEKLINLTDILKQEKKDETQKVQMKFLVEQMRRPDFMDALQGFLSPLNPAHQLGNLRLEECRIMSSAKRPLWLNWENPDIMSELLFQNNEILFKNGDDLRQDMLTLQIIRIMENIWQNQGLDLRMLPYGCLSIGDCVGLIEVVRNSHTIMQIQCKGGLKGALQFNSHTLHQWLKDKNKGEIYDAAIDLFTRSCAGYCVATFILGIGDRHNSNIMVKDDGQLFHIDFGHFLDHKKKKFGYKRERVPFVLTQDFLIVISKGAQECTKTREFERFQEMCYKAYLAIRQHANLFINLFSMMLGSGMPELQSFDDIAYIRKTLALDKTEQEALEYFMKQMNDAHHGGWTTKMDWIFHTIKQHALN"}, "EGFR(G719S)": {"molecular_target": "EGFR(G719S) (Homo sapiens, UniProt P00533, G719S)"}, "NEK7": {"molecular_target": "NEK7 (Homo sapiens, UniProt Q8TDX7)"}, "VPS34": {"molecular_target": "VPS34 (Homo sapiens, UniProt Q8NEB9)"}, "[2]": {"molecular_target": "T6, ABL1(E255K)-phosphorylated (Homo sapiens, UniProt P00519, E255K)", "T6 construct": "purchased Eurofins DiscoverX Corporation"}, "EGFR(L858R)": {"molecular_target": "EGFR(L858R) (Homo sapiens, UniProt P00533, L858R)"}, "TIE2": {"molecular_target": "T7, TIE2 (Homo sapiens, UniProt Q02763)", "T7 construct": "purchased Eurofins DiscoverX Corporation"}, "ABL1-phosphorylated": {"molecular_target": "T8, ABL1-phosphorylated (Homo sapiens, UniProt P00519)", "T8 construct": "purchased Eurofins DiscoverX Corporation"}, "LTK": {"molecular_target": "T9, LTK (Homo sapiens, UniProt P29376)", "T9 construct": "purchased Eurofins DiscoverX Corporation", "T9 sequence (P29376 17-864)": "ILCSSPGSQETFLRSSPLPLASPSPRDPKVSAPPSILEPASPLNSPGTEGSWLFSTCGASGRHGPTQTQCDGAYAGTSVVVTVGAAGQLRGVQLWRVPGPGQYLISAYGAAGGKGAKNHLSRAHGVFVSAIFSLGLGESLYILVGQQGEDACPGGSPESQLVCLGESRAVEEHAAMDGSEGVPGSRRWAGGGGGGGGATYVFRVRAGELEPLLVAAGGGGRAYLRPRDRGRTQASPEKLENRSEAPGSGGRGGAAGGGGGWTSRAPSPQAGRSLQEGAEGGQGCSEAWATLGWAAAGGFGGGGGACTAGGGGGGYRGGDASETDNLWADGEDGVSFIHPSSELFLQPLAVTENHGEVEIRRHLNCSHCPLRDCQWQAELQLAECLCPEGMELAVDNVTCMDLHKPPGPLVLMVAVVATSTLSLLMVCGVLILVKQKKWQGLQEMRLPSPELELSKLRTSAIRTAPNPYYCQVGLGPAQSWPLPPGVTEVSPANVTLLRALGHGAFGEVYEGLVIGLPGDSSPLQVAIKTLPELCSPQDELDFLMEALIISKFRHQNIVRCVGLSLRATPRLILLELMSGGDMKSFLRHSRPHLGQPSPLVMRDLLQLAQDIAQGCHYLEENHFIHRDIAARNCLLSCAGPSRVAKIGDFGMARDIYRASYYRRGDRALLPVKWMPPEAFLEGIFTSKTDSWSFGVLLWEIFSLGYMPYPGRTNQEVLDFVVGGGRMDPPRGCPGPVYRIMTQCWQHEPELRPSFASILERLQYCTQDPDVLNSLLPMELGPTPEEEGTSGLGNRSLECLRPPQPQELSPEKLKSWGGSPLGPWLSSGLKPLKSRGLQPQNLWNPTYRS"}, "[3]": {"molecular_target": "RSK3(Kin.Dom.2-C-terminal) (Homo sapiens, UniProt Q15349)"}, "MET(Y1235D)": {"molecular_target": "T10, MET(Y1235D) (Homo sapiens, UniProt P08581, Y1235D)", "T10 construct": "purchased Eurofins DiscoverX Corporation"}, "MAP4K2": {"molecular_target": "T11, MAP4K2 (Homo sapiens, UniProt Q12851)", "T11 construct": "purchased Eurofins DiscoverX Corporation", "T11 sequence (Q12851 whole entry)": "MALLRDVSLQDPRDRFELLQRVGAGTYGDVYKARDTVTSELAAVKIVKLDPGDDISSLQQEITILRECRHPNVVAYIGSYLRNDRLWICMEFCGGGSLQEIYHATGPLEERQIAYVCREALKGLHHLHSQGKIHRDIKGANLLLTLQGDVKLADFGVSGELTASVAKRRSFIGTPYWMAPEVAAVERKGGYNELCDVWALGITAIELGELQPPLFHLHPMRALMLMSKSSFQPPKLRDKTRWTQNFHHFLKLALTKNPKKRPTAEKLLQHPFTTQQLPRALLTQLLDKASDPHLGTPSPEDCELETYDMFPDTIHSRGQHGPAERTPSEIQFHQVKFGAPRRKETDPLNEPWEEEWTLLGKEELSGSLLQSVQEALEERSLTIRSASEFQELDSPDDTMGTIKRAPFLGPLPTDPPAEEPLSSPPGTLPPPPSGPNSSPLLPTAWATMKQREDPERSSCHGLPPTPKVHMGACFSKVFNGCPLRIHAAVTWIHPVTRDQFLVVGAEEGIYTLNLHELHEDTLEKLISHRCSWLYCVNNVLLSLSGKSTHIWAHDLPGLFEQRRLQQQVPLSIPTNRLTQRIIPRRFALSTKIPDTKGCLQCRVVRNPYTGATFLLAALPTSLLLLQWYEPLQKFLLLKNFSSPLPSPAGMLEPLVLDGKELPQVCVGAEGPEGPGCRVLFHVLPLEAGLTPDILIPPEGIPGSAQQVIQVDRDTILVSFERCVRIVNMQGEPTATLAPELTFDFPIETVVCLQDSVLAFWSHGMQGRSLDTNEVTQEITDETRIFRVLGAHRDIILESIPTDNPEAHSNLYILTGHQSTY"}, "p38-delta": {"molecular_target": "p38-delta (Homo sapiens, UniProt O15264)"}, "CDK9": {"molecular_target": "CDK9 (Homo sapiens, UniProt P50750)"}, "MEK6": {"molecular_target": "T12, MEK6 (Homo sapiens, UniProt P52564)", "T12 construct": "purchased Eurofins DiscoverX Corporation"}, "IRAK3": {"molecular_target": "T13, IRAK3 (Homo sapiens, UniProt Q9Y616)", "T13 construct": "purchased Eurofins DiscoverX (KINOMEscan)"}, "[4]": {"molecular_target": "RPS6KA4(Kin.Dom.1-N-terminal) (Homo sapiens, UniProt O75676)"}, "DMPK2": {"molecular_target": "T14, DMPK2 (Homo sapiens, UniProt Q6DT37)", "T14 construct": "purchased Eurofins DiscoverX Corporation"}, "TRKA": {"molecular_target": "T15, TRKA (Homo sapiens, UniProt P04629)", "T15 construct": "purchased Eurofins DiscoverX Corporation"}, "FRK": {"molecular_target": "T16, FRK (Homo sapiens, UniProt P42685)", "T16 construct": "purchased Eurofins DiscoverX Corporation", "T16 sequence (P42685 whole entry)": "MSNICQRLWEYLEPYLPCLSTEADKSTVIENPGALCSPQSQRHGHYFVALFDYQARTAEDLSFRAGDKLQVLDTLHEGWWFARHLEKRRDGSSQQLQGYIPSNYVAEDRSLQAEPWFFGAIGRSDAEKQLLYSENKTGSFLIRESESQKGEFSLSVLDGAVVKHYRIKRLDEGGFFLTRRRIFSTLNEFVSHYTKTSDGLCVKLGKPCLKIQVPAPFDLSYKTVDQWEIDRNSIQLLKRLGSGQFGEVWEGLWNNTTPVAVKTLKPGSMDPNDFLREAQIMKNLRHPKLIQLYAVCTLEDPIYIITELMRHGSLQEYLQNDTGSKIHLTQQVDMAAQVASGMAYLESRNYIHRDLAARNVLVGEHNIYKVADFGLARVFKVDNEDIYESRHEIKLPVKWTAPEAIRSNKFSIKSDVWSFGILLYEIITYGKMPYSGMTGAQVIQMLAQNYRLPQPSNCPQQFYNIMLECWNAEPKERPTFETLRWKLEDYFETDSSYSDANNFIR"}, "MAP3K1": {"molecular_target": "T17, MAP3K1 (Homo sapiens, UniProt Q13233)", "T17 construct": "purchased Eurofins DiscoverX Corporation"}, "EGFR(L747-T751del+Sins)": {"test_system": "EGFR(L747-T751del+Sins)"}}}
{"smiles": "C=CC(=O)Nc1ccc(OC)c(Nc2cc(-c3[nH]c(CC)nc3-c3cccc(NC(=O)c4cccc5c4NC(=O)c4ccccc4N5)c3)ccn2)c1", "note": "[Compound 4]", "values": [{"measurement": "POC", "setting": "SRMS", "value": "61% of control"}, {"measurement": "POC", "setting": "MLK1", "value": "86% of control"}, {"measurement": "POC", "setting": "CLK2", "value": "63% of control"}, {"measurement": "POC", "setting": "QSK", "value": "100% of control"}, {"measurement": "POC", "setting": "PRKD1", "value": "42% of control"}, {"measurement": "POC", "setting": "ICK", "value": "100% of control"}, {"measurement": "POC", "setting": "CLK3", "value": "74% of control"}, {"measurement": "POC", "setting": "ERK4", "value": "100% of control"}, {"measurement": "POC", "setting": "ASK2", "value": "100% of control"}, {"measurement": "POC", "setting": "MARK3", "value": "100% of control"}, {"measurement": "POC", "setting": "ROCK1", "value": "100% of control"}, {"measurement": "POC", "setting": "S6K1", "value": "100% of control"}, {"measurement": "POC", "setting": "CSNK1E", "value": "88% of control"}, {"measurement": "POC", "setting": "CSNK1A1", "value": "56% of control"}, {"measurement": "POC", "setting": "FER", "value": "36% of control"}, {"measurement": "POC", "setting": "EIF2AK1", "value": "75% of control"}, {"measurement": "POC", "setting": "BRK", "value": "96% of control"}, {"measurement": "POC", "setting": "ERK3", "value": "100% of control"}, {"measurement": "POC", "setting": "PIM2", "value": "88% of control"}, {"measurement": "POC", "setting": "[1]", "value": "83% of control"}, {"measurement": "POC", "setting": "PIK3CA(I800L)", "value": "100% of control"}, {"measurement": "POC", "setting": "EGFR(G719S)", "value": "13% of control"}, {"measurement": "POC", "setting": "NEK7", "value": "86% of control"}, {"measurement": "POC", "setting": "VPS34", "value": "84% of control"}, {"measurement": "POC", "setting": "[2]", "value": "65% of control"}, {"measurement": "POC", "setting": "EGFR(L858R)", "value": "5% of control"}, {"measurement": "POC", "setting": "TIE2", "value": "71% of control"}, {"measurement": "POC", "setting": "ABL1-phosphorylated", "value": "80% of control"}, {"measurement": "POC", "setting": "LTK", "value": "48% of control"}, {"measurement": "POC", "setting": "[3]", "value": "80% of control"}, {"measurement": "POC", "setting": "MET(Y1235D)", "value": "97% of control"}, {"measurement": "POC", "setting": "MAP4K2", "value": "36% of control"}, {"measurement": "POC", "setting": "p38-delta", "value": "100% of control"}, {"measurement": "POC", "setting": "CDK9", "value": "100% of control"}, {"measurement": "POC", "setting": "MEK6", "value": "73% of control"}, {"measurement": "POC", "setting": "IRAK3", "value": "39% of control"}, {"measurement": "POC", "setting": "[4]", "value": "96% of control"}, {"measurement": "POC", "setting": "DMPK2", "value": "0% of control"}, {"measurement": "POC", "setting": "TRKA", "value": "77% of control"}, {"measurement": "POC", "setting": "FRK", "value": "20% of control"}, {"measurement": "POC", "setting": "MAP3K1", "value": "100% of control"}, {"measurement": "POC", "setting": "EGFR(L747-T751del+Sins)", "value": "7.6% of control"}]}
